Assay: FRAP activity test and antioxidant evaluation test using rats
Assay type: in vivo, rats of Wistar strain
Conditions: male Wistar rats, oral, 100 mg/kg
Method: Male rats of Wistar strain (9 weeks age) were fasted for one night, a pine bark extract mentioned in Example 1 or vitamin C was compulsorily administered via oral route, and blood was collected from tail vein from time to time to prepare plasma samples. FRAP value of the plasma sample was measured by a method of Benzie (Benzie, I. F. F. and Strain, J. J., Anal. Biochem., 1996, Volume 239, pages 70 to 76) and its changes with a lapse of time were traced as an index for antioxidant activity in blood. The plasma sample (10 μL) was added to 990 μL of FRAP reagent containing 20 mM of FeCl3 followed by being allowed to stand at 37° C. for 4 minutes, and changes in absorbance at 593 nm were measured. The same operation was conducted using a solution containing a predetermined concentration of […] sample and, from the changes in absorbance, a calibration curve for FRAP values was prepared.

## O=C1O[C@H]([C@@H](O)CO)C(O)=C1O [vitamin C]
  FRAP value in blood: an increase in the FRAP value was also observed
